From patent US20260327244A1, “PYRIDO[4,3-D]PYRIMIDINE COMPOUNDS” (Pfizer Inc., priority 2022, published 2026)

Tests used:
G12C KRAS (aa2-184) = G12C KRAS (aa2-184) (Homo sapiens, UniProt P01116, G12C)
Experimental: (§1) SPR assay was used to measure the kinetic binding constant (KD) of Examples of the present invention.
(§2) The binding affinity and kinetics of Examples of the present invention were measured by Surface Plasmon Resonance (SPR) using Biacore 8K or 8K+ (Cytiva, Marlborough, MA) instruments. Recombinant, C-terminal site-specific biotinylated, wild-type (WT) KRAS (aa1-185), G12D KRAS (aa1-185), G12C KRAS (aa2-184), G12V KRAS (aa2-184), WT HRAS (aa2-184) and WT NRAS (aa2-185) proteins purified in presence of 1 μM GDP were used in these experiments. Binding measurements were performed parallelly in sets of either WT/G12D/G12C/G12V KRAS or WT K/H/N RAS proteins.
(§3) Biacore instrument was desorbed and docked with a Series S Sensor Chip SA. The proteins were diluted to 50 μg/mL with the assay buffer (50 mM HEPES, 150 mM NaCl, 10 μM GDP, 5 mM MgCl2, 0.5 mM TCEP, 5% glycerol, 0.02% Tween-20, 2% DMSO, pH 7.2) and immobilized at a flow rate of 3 μL/min at 10° C. with a contact time of 15 min. to capture ~3000-4000 RUs of proteins on the surface. The functionalized surface was then equilibrated with assay buffer for approximately 1 hour. Un-functionalized SA surfaces with no immobilized protein served as reference for binding kinetic analysis. Compound binding kinetics were measured in either multi-cycle or single-cycle kinetic format.
(§4) A 2-fold, 10-point serial dilution of test compounds was set-up in a 96-well microplate (Greiner; Cat #650101) with a top concentration of either 10 μM or 100 μM. Binding kinetics was measured at 10° C. by injecting serial dilution of compounds onto both reference and RAS immobilized channels at a flow rate of 100 μL/min and association time of 90 seconds. Compound dissociation was monitored for at least 400 seconds during each cycle. No additional regeneration was used. DMSO calibration curve was obtained before and after compound analysis by injecting 0-4% of DMSO in assay buffer. A suitable compound with known affinity and kinetics was tested once in every experiment as a positive control to assess activity of the captured protein on the surface.
(§5) A 3-fold, 6-point serial dilution of compounds was set-up in a deep 96-well microplate (Greiner Bio; Cat #780201) with the highest concentration of 1 μM (concentration range: 0.004-1 μM). Binding kinetics was measured at 10° C. by injecting serial dilutions of compounds in increasing order onto reference as well as RAS immobilized channels at a flow rate of 100 μL/min and association time of 120 seconds. Compound dissociation was monitored for at least 3600 seconds. Two buffer blanks were also run in a single-cycle kinetics format before the compound run for double referencing. No additional regeneration was used. DMSO calibration curve was obtained before and after compound analysis by injecting 0-4% of DMSO in the assay buffer. A suitable compound with known affinity and kinetics was tested once in every experiment as a positive control to assess activity of the captured protein on the surface.
(§6) Both MCK and SCK data were processed and analyzed using Biacore Insight evaluation software (Cytiva, Marlborough, MA)). […] The adequateness of the fit was judged by c^2 values and the randomness of residue distribution.
(§7) A geometric mean of binding constant KD was provided when an Example was tested more than once (n is testing replicate number).

[1] = target: T1, wild-type (WT) KRAS (aa1-185) (Homo sapiens, UniProt P01116); assay: KRAS Surface Plasma Resonance (SPR) binding assay, WT KRAS; conditions: SPR at 10 °C, geometric mean when tested more than once
T1 construct: wild-type (WT) KRAS (aa1-185)
Excerpt: No additional regeneration was used.
Compound dissociation was monitored for at least 3600 seconds. […] No additional regeneration was used.

G12D KRAS (aa1-185) = G12D KRAS (aa1-185) (Homo sapiens, UniProt P01116, G12D);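 note: surface plasmon resonance at 10 °C, KRAS captured on a streptavidin chip in GDP-containing buffer, compound dilution series injected, blank streptavidin surface as reference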
Sequence of G12D KRAS (aa1-185) (P01116 1-185 isoform P01116-2 G12D): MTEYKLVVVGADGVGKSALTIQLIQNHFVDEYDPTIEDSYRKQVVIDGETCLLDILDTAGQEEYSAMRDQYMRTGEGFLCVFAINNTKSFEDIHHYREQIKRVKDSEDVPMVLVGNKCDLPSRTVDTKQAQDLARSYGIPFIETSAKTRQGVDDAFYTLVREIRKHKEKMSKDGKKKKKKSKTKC
Experimental: as §1, §2, §3, §4, §5, §6, §7

[2] = Mouse PK study, unbound plasma exposure of Example 33 after oral dosing of female NSG mice; type: in vivo; conditions: for Cav, ss, u / Cmax, u: unbound Example 33 in plasma, single oral dose 100 mg (active)/kg
Experimental: FIG. 1 provides mouse PK study results showing unbound plasma concentrations of Example 33 in female NSG mouse plasma after oral dosing of female NSG Mice at 100 mg/kg (n=3, mean+/−SD). The solution of Example 33 was prepared using a Pluronic-based formulation [2.5% (w/v) Pluronic F-68 (Poloxamer 188)], and the suspension arms of both Example 33 and Example 34 were prepared using a 0.5% (w/v) methylcellulose formulation.
The solution formulation of Example 33 was an aqueous solution with 2.5% (w/v) Pluronic F-68 (Poloxamer 188). The amorphous suspension formulations of Example 33 and Example 34 were made using in 0.5% (w/v) methylcellulose in water.

G12V KRAS (aa2-184) = G12V KRAS (aa2-184) (Homo sapiens, UniProt P01116, G12V)
Sequence of G12V KRAS (aa2-184) (P01116 2-184 isoform P01116-2 G12V): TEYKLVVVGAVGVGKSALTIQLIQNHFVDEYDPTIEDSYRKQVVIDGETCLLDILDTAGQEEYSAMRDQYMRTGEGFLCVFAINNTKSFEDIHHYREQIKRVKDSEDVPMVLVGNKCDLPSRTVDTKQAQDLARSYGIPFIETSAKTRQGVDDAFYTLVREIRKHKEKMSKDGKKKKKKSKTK
Experimental: as §1, §2, §3, §4, §5, §6, §7

[3] = suspension, relative to Example 33 suspension, 100 mg (active)/kg oral
[4] = suspension (0.5% methylcellulose)

T1 sequence (P01116 1-185 isoform P01116-2): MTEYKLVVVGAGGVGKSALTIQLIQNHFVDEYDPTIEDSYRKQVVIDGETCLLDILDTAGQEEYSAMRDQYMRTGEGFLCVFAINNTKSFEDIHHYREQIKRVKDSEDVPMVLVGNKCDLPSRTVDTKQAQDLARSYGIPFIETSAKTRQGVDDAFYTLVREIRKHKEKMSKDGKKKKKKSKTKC
Sequence of G12C KRAS (aa2-184) (P01116 2-184 isoform P01116-2 G12C): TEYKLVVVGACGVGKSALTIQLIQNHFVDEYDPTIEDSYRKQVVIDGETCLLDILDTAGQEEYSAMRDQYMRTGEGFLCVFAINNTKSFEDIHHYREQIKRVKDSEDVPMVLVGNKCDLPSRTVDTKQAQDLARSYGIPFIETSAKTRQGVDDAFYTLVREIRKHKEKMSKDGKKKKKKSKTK

## C#Cc1c(F)c(F)cc2cc(O)cc(-c3nc4c5c(nc(OC[C@@]67CCCN6C[C@H](F)C7)nc5c3F)N3CCCC[C@H]3CO4)c12 [Example 33, 5-ethynyl-6,7-difluoro-4-[(8aS)-4-fluoro-2-{[(2R,7aS)-2-fluorotetrahydro-1H-pyrrolizin-7a(5H)-yl]methoxy}-8,8a,9,10,11,12-hexahydro-7-oxa-1,3,6,12a-tetraazabenzo[4,5]cyclohepta[1,2,3-de]naphthalen-5-yl]naphthalen-2-ol]
G12C KRAS (aa2-184)
  Kd: 0.019 nM
[1]
  Kd: 0.023 nM
G12D KRAS (aa1-185)
  Kd: 0.019 nM
[2]; [3]
  Cav Fold Increase: 1
  Cmax Fold increase: 1
[2]; solution (2.5% Pluronic F-68)
  Cav, ss, u: 0.30 nM
  Cmax, u: 0.60 nM
[2]; [4]
  Cav, ss, u: 0.37 nM
  Cmax, u: 0.48 nM
G12V KRAS (aa2-184)
  Kd: 0.096 nM
